Measured values: US20220264878A1, “HERBICIDAL COMPOSITION CONTAINING R-TYPE PYRIDYLOXY CARBOXYLIC ACID DERIVATIVE AND USE THEREOF” (Qingdao Kingagroot Chemical Compound Co., Ltd., priority 2019, published 2022)
Where two headings read alike, the source gives them in different places.

Key:
Format in all cases: in vivo
Digitaria sanguinalis = experiment: Post-emergence foliage spray, pot culture, fresh weight inhibition (Tables 151-206; 20 days); details: Digitaria sanguinalis, 480 h, read-out: Control effect (%) of A applied alone in corresponding dose
Protocol: Table 151-206: Digitaria sanguinalis, Amaranthus retroflexus, Conyza Canadensis, Capsella bursa-pastoris, Eleusine indica were collected in Huangdao of Shandong Province, Sinapis arvensis were collected in Sixian of Anhui Province, Alopecurus japonicus were collected in Tianchang of Anhui Province, Veronica didyma were collected in Siyang of Jiangsu Province.
(§1) The above weeds were cultivated by a pot culture method. […] Full and uniform weed seeds were selected, soaked in warm water at 25° C. for 6 hours, and germinated in a 28° C. biochemical incubator (darkness). The weed seeds that had just germinatedwere evenly placed on the surface of the soil and then covered with 0.5-1 cm soil according to the sizes of seeds.
The culture was carried out in a controllable sunlight greenhouse at 20 to 30° C., in natural light, and relative humidity of 57% to 72%.
(§2) The technical materials were all dissolved in acetone, and diluted with an aqueous solution containing 0.1% emulsifier Tween-80. The dilution is performed as required.
(§3) A ratio of the active ingredient A to the active ingredient B and amounts thereof in each group depends on the characteristics and toxicity of the two agents, as well as the main application purpose of a corresponding formulation. Based on the pre-tests in this study, the dosage of the active ingredient A and B applied alone and in combination were shown in the tables. Water containing the solvent and emulsifier same with the above groups but free of the agents was used as a blank control.
Table 1-48, 51-98, 101-148, 151-206: […] per treatment, that is, a total of 60 weeds were treated in one treatment.
Table 151-206: The agents were used for only once in the experiment. In the stage of weeds with 3˜4 leaves, the weeds were thinned out to maintain 15 weeds per pot and 45 weeds for each treatment, then continued to be cultured to 4˜5 leaves stage of grassy weeds, 5˜6 leaves stage of broadleaf weeds, and treated.
(§4) The well-cultured weeds were evenly placed on a platform with an area of 0.5 m^2, and a solution of agents was sprayed on the stems and leaves thereof by the 3WP-2000-type walking spray tower at a dosage of 450 kg/ha and at a spray pressure of 0.3 MPa. After all the solution was sprayed, the valve was closed. After 30 seconds, the door of the spray tower was opened, and the nutritional bowl was taken out. Then the valve was opened, and the spray tube was cleaned by spraying 50 ml of water.
(§5) A pot-culture method was employed. For the cultivation of weeds, please refer to the Section 1.1), and “Pesticide guidelines for laboratory bioactivity tests—herbicides”. As to a method for applying agents, please refer to the section 2.3.2), that is, a foliage treatment was employed. After the treatment, the weeds were routinely cultured in a greenhouse.
(§6) A method for investigating absolute number was employed, wherein whole seedlings of survival weeds were cut off with a blade along the soil surface, and the fresh weight of the weeds was weighed with an analytical balance. For dead weeds, the fresh weight thereof was zero.
Table 151-206: The investigation was performed after 20 days of the treatment for only once.
Theoretical fresh weight inhibition rate of a combination of two active ingredients in each group was calculated by the Gowing method (E0=X+Y−X*Y/100), and then compared with an actually measured inhibition rate (E), thereby effect of the combination (hereafter referred to as combined effect) on weeds was evaluated: the value of E-E0, which was greater than 10%, corresponded to a synergistic effect, the value of E-E0, which was less than −10%, corresponded to an antagonistic effect, and the value of E-E0, which was from −10% to 10%, corresponded to an additional effect.

Capsella bursa-pastoris = experiment: as above; details: Capsella bursa-pastoris, 480 h, read-out: Control effect (%) of A applied alone in corresponding dose
Protocol: as §1, §2, §3
In the stage of weeds with 3˜4 leaves, the weeds were thinned out to maintain 15 weeds per pot and 45 weeds for each treatment, then continued to be cultured to 4˜5 leaves stage of grassy weeds, 5˜6 leaves stage of broadleaf weeds, and treated.
as §4, §5, §6
(§7) Wherein, in the formula, X represented the fresh weight inhibition rate of the active ingredient A in a dosage of P, and Y represented the fresh weight inhibition rate of the active ingredient B in a dosage of Q.

Echinochloa caudate = experiment: Post-emergence foliage spray, pot culture, fresh weight inhibition (Tables 1-48, 51-98, 101-148; 24 days); details: Echinochloa, 576 h, read-out: Control effect (%) of B applied alone in corresponding dose
Protocol: as §1, §2, §3
(§8) In the stage of weeds with 3˜4 leaves, the weeds were thinned out to maintain 15 weeds per pot and 45 weeds for each treatment, then continued to be cultured to 5˜6 leaves stage of grassy weeds, 6˜7 leaves stage of broadleaf weeds, and treated.
as §4, §5, §6, §7

[1] = system: Echinochloa crusgalli var. zelayensis; experiment: as above; details: Echinochloa crus-galli, foliar, 576 h, foliage spray, 24 days, read-out: Control effect (%) of B applied alone in corresponding dose
Protocol: as §1, §2, §3, §8, §4, §5, §6, §7

Echinochloa oryzoides = experiment: as above; details: Echinochloa oryzoides, 576 h, Table 108, read-out: Control effect (%) of B applied alone in corresponding dose
Protocol: as §1, §2, §3, §8, §4, §5, §6, §7

[2] = A alone 75 g a.i./ha, 20 days after treatment
[3] = A alone 150 g a.i./ha, 20 days after treatment

SMILES | pest or weed control at 75 g/ha (Digitaria sanguinalis; A 75 g a.i./ha, 20 days) [%] | pest or weed control at 150 g/ha (Digitaria sanguinalis; A 150 g a.i./ha, 20 days) [%] | pest or weed control at 75 g/ha (Capsella bursa-pastoris; A 75 g a.i./ha, 20 days) [%] | pest or weed control at 150 g/ha (Capsella bursa-pastoris; A 150 g a.i./ha, 20 days) [%] | pest or weed control at 75 g/ha (Digitaria sanguinalis; [2]) [%] | pest or weed control at 150 g/ha (Digitaria sanguinalis; [3]) [%] | pest or weed control at 75 g/ha (Capsella bursa-pastoris; [2]) [%] | pest or weed control at 150 g/ha (Capsella bursa-pastoris; [3]) [%] | further results
C[C@@H](Oc1nc(F)c(Cl)c(N)c1Cl)C(=O)OCc1ccccc1 [Compound A141] | 27.7 | 55.8 | 7.8 | 16.4 |  |  |  |  | 
Cc1cnc(C2=NC(=O)C(C)(C(C)C)N2)c(C(=O)O)c1 (centres unmarked) [imazapic] |  |  |  |  |  |  |  |  | pest or weed control at 9.375 g/ha (Echinochloa caudate; imazapic 9.375 g a.i./ha): 6.8%; pest or weed control at 18.75 g/ha (Echinochloa caudate; imazapic 18.75 g a.i./ha): 21.5%; pest or weed control at 37.5 g/ha (Echinochloa caudate; imazapic 37.5 g a.i./ha): 28.6%; pest or weed control at 75 g/ha (Echinochloa caudate; imazapic 75 g a.i./ha): 55.6%; pest or weed control at 9.375 g/ha ([1]; B 9.375 g a.i./ha): 1.2%; pest or weed control at 18.75 g/ha ([1]; B 18.75 g a.i./ha): 18.6%; pest or weed control at 37.5 g/ha ([1]; B 37.5 g a.i./ha): 26.9%; pest or weed control at 75 g/ha ([1]; B 75 g a.i./ha): 57%; pest or weed control at 9.375 g/ha (Echinochloa oryzoides; 9.375 g a.i./ha): 4%; pest or weed control at 18.75 g/ha (Echinochloa oryzoides; 18.75 g a.i./ha): 21.3%; pest or weed control at 37.5 g/ha (Echinochloa oryzoides; 37.5 g a.i./ha): 30.4%; pest or weed control at 75 g/ha (Echinochloa oryzoides; 75 g a.i./ha): 59.7%
C[C@@H](Oc1ncc(Br)c(N)c1Br)C(=O)O [Compound A212] | 11.5 | 24.6 | 8.6 | 14.5 |  |  |  |  | 
CC[C@@H](Oc1nc(F)c(Cl)c(N)c1Cl)C(=O)OC [Compound A172] | 21.2 | 38.9 | 22.4 | 47.9 |  |  |  |  | 
CC(C)=NOC(=O)[C@@H](C)Oc1nc(F)c(Cl)c(N)c1Cl [Compound A130] |  |  |  |  | 16.7 | 36.8 | 5.4 | 13.2 | 
CCCCOCCOC(=O)[C@@H](C)Oc1nc(F)c(Cl)c(N)c1Cl [Compound A214] |  |  |  |  | 21.9 | 44.6 | 24.8 | 46.2 | 
